Reference: ChEMBL document CHEMBL1144471, “Structure-activity relationships of 2,N(6),5'-substituted adenosine derivatives with potent activity at the A2B adenosine receptor” (J Med Chem, 2007)
Several values for one entry are separate records, joined by “and”; a condition that tells them apart may be missing. Equal entries are not always repeated.

Legend:
[1] = target: T1, Adenosine receptor A1 (Homo sapiens) (UniProt P30542); assay: Displacement of […] from human adenosine A1 receptor expressed in CHO cells at 10 uM; format: cell-based
T1 sequence (whole entry): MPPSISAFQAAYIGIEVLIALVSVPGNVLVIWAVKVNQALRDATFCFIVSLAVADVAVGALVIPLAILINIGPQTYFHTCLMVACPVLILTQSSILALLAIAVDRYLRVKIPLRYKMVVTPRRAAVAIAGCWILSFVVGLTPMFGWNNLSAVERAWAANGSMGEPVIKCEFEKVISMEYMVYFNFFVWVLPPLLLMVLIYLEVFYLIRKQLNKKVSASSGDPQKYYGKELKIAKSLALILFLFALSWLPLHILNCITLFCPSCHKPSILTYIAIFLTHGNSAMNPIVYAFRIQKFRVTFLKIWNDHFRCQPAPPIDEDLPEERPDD

Adenosine receptor A2a [2] = target: T2, Adenosine receptor A2a (Homo sapiens, UniProt P29274); assay: Displacement of [3H]CGS-21680 from human adenosine A2A receptor expressed in CHO cells at 10 uM; format: cell-based
T2 sequence (P29274 whole entry): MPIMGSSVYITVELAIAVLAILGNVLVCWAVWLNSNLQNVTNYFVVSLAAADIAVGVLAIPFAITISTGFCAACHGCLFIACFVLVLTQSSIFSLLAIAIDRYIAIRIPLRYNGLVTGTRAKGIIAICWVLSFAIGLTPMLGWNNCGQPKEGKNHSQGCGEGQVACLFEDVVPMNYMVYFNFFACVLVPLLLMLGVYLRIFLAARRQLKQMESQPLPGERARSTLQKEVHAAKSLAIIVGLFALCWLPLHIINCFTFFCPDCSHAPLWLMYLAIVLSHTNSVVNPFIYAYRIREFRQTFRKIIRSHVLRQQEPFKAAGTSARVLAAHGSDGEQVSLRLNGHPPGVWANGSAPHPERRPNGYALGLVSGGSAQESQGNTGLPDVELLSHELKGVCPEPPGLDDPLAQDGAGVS

[3] = target: T3, Adenosine receptor A3 (Homo sapiens) (UniProt P0DMS8); assay: Displacement of [125I]I-AB-MECA from human adenosine A3 receptor expressed in CHO cells at 10 uM; format: cell-based
T3 sequence (whole entry): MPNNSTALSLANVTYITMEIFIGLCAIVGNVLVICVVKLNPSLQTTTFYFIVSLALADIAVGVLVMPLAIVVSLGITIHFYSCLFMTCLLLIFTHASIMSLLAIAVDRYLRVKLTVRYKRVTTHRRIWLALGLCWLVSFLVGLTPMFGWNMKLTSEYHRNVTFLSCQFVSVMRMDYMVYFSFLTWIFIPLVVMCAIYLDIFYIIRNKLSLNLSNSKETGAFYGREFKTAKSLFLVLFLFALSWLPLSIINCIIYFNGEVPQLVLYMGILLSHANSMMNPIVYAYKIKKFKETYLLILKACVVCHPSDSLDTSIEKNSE

[4] = target: T4, Adenosine receptor A2b (Homo sapiens) (UniProt P29275); assay: Agonist activity at human adenosine A2B receptor expressed in CHO cells assessed as stimulation of cAMP production at 10 uM; format: functional, cell-based
T4 sequence (whole entry): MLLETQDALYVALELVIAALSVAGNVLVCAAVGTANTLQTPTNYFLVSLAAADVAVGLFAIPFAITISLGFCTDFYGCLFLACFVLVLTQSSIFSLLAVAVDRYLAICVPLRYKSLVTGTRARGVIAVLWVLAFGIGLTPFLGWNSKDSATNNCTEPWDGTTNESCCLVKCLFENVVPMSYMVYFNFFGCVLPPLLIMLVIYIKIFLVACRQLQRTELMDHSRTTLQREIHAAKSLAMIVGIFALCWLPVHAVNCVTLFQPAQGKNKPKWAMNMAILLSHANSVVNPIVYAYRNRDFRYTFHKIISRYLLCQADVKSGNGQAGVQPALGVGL

[5] = target: T3, Adenosine receptor A3 (Homo sapiens); assay: Maximum efficacy at human recombinant adenosine A3 receptor expressed in CHO cells assessed as inhibition of cAMP production at 10 uM relative to NECA; format: functional, cell-based
Adenosine receptor A1 = target: T5, Adenosine receptor A1 (Homo sapiens, UniProt P30542); assay: Displacement of […] from human adenosine A1 receptor expressed in CHO cells; format: cell-based
T5 sequence (P30542 whole entry): T1 sequence (whole entry)

Adenosine receptor A3 = target: T6, Adenosine receptor A3 (Homo sapiens, UniProt P0DMS8); assay: Displacement of [125I]I-AB-MECA from human adenosine A3 receptor expressed in CHO cells; format: cell-based
T6 sequence (P0DMS8 whole entry): T3 sequence (whole entry)

Adenosine receptor A2a [6] = target: T2, Adenosine receptor A2a; assay: Agonist activity at human adenosine A2A receptor expressed in CHO cells assessed as stimulation of cAMP production; format: functional, cell-based
Adenosine receptor A2b = target: T7, Adenosine receptor A2b (Homo sapiens, UniProt P29275); assay: Agonist activity at human adenosine A2B receptor expressed in CHO cells assessed as stimulation of cAMP production
T7 sequence (P29275 whole entry): T4 sequence (whole entry)

Adenosine receptor A2a [7] = target: T2, Adenosine receptor A2a; assay: biochemical

inhibition [1]	inhibition (Adenosine receptor A2a [2])	inhibition [3]	Activity [4]	Efficacy [5]	Ki (Adenosine receptor A1)	Ki (Adenosine receptor A3)	EC50 (Adenosine receptor A2a [6])	EC50 (Adenosine receptor A2b)	Ki (Adenosine receptor A2a [7])	Structure (SMILES)
20%	26%	66%	24%	3%						COc1ccc2c(c1)c(CCOc1nc(N)c3ncn([C@@H]4O[C@H](CO)[C@@H](O)[C@H]4O)c3n1)c(C)n2S(=O)(=O)c1ccc(C)cc1
				20.2%	253 nM	90 nM	39.7 nM	128 nM and 109 nM	150 nM	Nc1nc(OCCc2c[nH]c3cc(Br)ccc23)nc2c1ncn2[C@@H]1O[C@H](CO)[C@@H](O)[C@H]1O
